Experimental data as given in patent publication US11524966B1 (Valo Early Discovery, Inc., priority 2017, dated 2022).

Target: T1, USP28 (His-tagged USP28-FL-mammalian) (Homo sapiens, UniProt Q96RU2)
T1 construct: Expression of USP28 (1-1077)-TEV-6*His (pTT5 vector); made in house; host or cells: Expi293f cells (pTT5 vector)
T1 sequence (Q96RU2 1-1077): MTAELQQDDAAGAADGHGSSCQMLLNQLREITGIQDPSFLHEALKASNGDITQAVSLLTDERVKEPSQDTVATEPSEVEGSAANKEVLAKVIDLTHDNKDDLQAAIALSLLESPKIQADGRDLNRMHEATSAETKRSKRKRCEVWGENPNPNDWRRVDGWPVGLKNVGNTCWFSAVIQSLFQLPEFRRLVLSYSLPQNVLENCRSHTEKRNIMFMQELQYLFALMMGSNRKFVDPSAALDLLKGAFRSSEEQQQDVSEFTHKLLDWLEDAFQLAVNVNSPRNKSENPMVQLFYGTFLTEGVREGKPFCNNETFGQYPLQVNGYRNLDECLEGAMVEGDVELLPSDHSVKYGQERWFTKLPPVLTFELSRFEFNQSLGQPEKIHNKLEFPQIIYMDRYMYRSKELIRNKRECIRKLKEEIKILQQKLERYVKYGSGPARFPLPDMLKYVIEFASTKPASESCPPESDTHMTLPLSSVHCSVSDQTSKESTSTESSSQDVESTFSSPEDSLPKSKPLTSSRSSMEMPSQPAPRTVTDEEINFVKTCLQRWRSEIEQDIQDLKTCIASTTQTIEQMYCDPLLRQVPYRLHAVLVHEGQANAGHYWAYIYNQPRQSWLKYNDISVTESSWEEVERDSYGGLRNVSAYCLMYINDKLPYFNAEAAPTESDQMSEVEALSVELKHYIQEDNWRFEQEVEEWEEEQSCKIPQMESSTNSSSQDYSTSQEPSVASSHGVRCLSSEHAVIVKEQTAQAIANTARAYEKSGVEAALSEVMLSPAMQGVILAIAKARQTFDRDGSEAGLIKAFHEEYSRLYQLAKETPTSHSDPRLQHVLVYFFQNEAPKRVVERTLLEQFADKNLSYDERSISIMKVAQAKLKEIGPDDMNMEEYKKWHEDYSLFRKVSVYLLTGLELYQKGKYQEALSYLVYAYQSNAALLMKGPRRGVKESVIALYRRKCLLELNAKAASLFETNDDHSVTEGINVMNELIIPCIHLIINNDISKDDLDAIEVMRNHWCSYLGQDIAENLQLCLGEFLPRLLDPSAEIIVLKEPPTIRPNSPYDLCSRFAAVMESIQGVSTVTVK
Test: Ubiquitin-Rhodamine 110 Assay for USP28 Activity, Example A-1(a)
Format: biochemical
Details: Ubiquitin-Rhodamine 110 assay, Example A-1(a); read-out: USP28 A-1(a) IC50 range
Procedure, shortened: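 Full-length His-tagged USP28 (1-1077, Expi293F-expressed; […]) was preincubated 30 min with compound (25 μM–1.3 nM, 10-point 3-fold) in 20 mM Tris-HCl pH 8.0, 3 mM BME, 0.03% BGG, 0.01% Triton X-100. Ub-Rh110 (25 nM) was then added for 45 min at room temperature, stopped with citric acid, and read by fluorescence (485/535 nm).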

## Cc1ccc2c(N)c(C(=O)N[C@H]3CCc4nc(N5C[C@H]6NCCC(F)(F)[C@H]6C5)ccc4C3)sc2n1 [Example 329, N-[(6S)-2-[(4aS,7aS)-4,4-difluoro-octahydro-1H-pyrrolo[3,4-b]pyridin-6-yl]-5,6,7,8-tetrahydroquinolin-6-yl]-3-amino-6-methylthieno[2,3-b]pyridine-2-carboxamide]
  IC50: 0.05 to 0.2 µM

## Cc1ccc2c(N)c(C(=O)N[C@H]3CCc4nc(N5C[C@@H]6NCCC(F)(F)[C@@H]6C5)ccc4C3)sc2n1 [Example 330, N-[(6S)-2-[(4aR,7aR)-4,4-difluoro-octahydro-1H-pyrrolo[3,4-b]pyridin-6-yl]-5,6,7,8-tetrahydroquinolin-6-yl]-3-amino-6-methylthieno[2,3-b]pyridine-2-carboxamide]
  IC50: 0.05 to 0.2 µM

## CN[C@H]1CN(c2ccc3c(n2)CC[C@H](NC(=O)c2sc4nc(C)ccc4c2N)C3)C[C@@]1(C)O [Example 331, 3-amino-N-[(6S)-2-[(3R,4S)-3-hydroxy-3-methyl-4-(methylamino)pyrrolidin-1-yl]-5,6,7,8-tetrahydroquinolin-6-yl]-6-methylthieno[2,3-b]pyridine-2-carboxamide]
  IC50: 0.05 to 0.2 µM

## CN[C@@H]1CN(c2ccc3c(n2)CC[C@H](NC(=O)c2sc4nc(C)ccc4c2N)C3)C[C@]1(C)O [Example 332, 3-amino-N-[(6S)-2-[(3S,4R)-3-hydroxy-3-methyl-4-(methylamino)pyrrolidin-1-yl]-5,6,7,8-tetrahydroquinolin-6-yl]-6-methylthieno[2,3-b]pyridine-2-carboxamide]
  IC50: 0.05 to 0.2 µM

## CO[C@H]1CN(c2ccc3c(c2)OC[C@H](NC(=O)c2sc4nc(C)ccc4c2N)C3)[C@@H](C)[C@@H]1N [Example 333, 3-amino-N-[(3R)-7-[(2S,3S,4S)-3-amino-4-methoxy-2-methylpyrrolidin-1-yl]-3,4-dihydro-2H-1-benzopyran-3-yl]-6-methylthieno[2,3-b]pyridine-2-carboxamide]
  IC50: 0.001 to 0.05 µM

## CO[C@H]1[C@H](N)CN(c2ccc3c(c2)OC[C@H](NC(=O)c2sc4nc(C)ccc4c2N)C3)[C@H]1C [Example 334, 3-amino-N-[(3R)-7-[(2S,3S,4R)-4-amino-3-methoxy-2-methylpyrrolidin-1-yl]-3,4-dihydro-2H-1-benzopyran-3-yl]-6-methylthieno[2,3-b]pyridine-2-carboxamide]
  IC50: 0.001 to 0.05 µM

## CO[C@@H]1CN(c2ccc3c(c2)OC[C@H](NC(=O)c2sc4nc(C)ccc4c2N)C3)[C@H](C)[C@H]1N [Example 335, 3-amino-N-[(3R)-7-[(2R,3R,4R)-3-amino-4-methoxy-2-methylpyrrolidin-1-yl]-3,4-dihydro-2H-1-benzopyran-3-yl]-6-methylthieno[2,3-b]pyridine-2-carboxamide]
  IC50: 0.001 to 0.05 µM

## CO[C@H]1[C@@H](C)N(c2ccc3c(c2)OC[C@H](NC(=O)c2sc4nc(C)ccc4c2N)C3)C[C@@H]1N [Example 336, 3-amino-N-[(3R)-7-[(2R,3R,4S)-4-amino-3-methoxy-2-methylpyrrolidin-1-yl]-3,4-dihydro-2H-1-benzopyran-3-yl]-6-methylthieno[2,3-b]pyridine-2-carboxamide]
  IC50: 0.001 to 0.05 µM

## Cc1ccc2c(N)c(C(=O)N[C@H]3COc4cc(N5CC6(C5)OCC[C@H]6N)ccc4C3)sc2n1 [Example 337, 3-amino-N-[(3R)-7-[(8R)-8-amino-5-oxa-2-azaspiro[3.4]octan-2-yl]-3,4-dihydro-2H-1-benzopyran-3-yl]-6-methylthieno[2,3-b]pyridine-2-carboxamide]
  IC50: 0.001 to 0.05 µM

## Cc1ccc2c(N)c(C(=O)N[C@H]3COc4cc(N5CC6(C5)OCC[C@@H]6N)ccc4C3)sc2n1 [Example 338, 3-amino-N-[(3R)-7-[(8S)-8-amino-5-oxa-2-azaspiro[3.4]octan-2-yl]-3,4-dihydro-2H-1-benzopyran-3-yl]-6-methylthieno[2,3-b]pyridine-2-carboxamide]
  IC50: 0.05 to 0.2 µM

## Cc1ccc2c(N)c(C(=O)N[C@H]3COc4cc(N5C[C@@H](N)[C@@]6(CCO6)C5)ccc4C3)sc2n1 [Example 339, 3-amino-N-[(3R)-7-[(4R,8R)-8-amino-1-oxa-6-azaspiro[3.4]octan-6-yl]-3,4-dihydro-2H-1-benzopyran-3-yl]-6-methylthieno[2,3-b]pyridine-2-carboxamide]
  IC50: 0.001 to 0.05 µM

## Cc1ccc2c(N)c(C(=O)N[C@H]3COc4cc(N5C[C@H](N)[C@]6(CCO6)C5)ccc4C3)sc2n1 [Example 340, 3-amino-N-[(3R)-7-[(4S,8S)-8-amino-1-oxa-6-azaspiro[3.4]octan-6-yl]-3,4-dihydro-2H-1-benzopyran-3-yl]-6-methylthieno[2,3-b]pyridine-2-carboxamide]
  IC50: 0.001 to 0.05 µM

## COC[C@@]1(C)CN(c2ccc3c(n2)CC[C@H](NC(=O)c2sc4nc(C)ccc4c2N)C3)C[C@@H]1N [Example 341, 3-amino-N-[(6S)-2-[(3S,4R)-4-amino-3-(methoxymethyl)-3-methylpyrrolidin-1-yl]-5,6,7,8-tetrahydroquinolin-6-yl]-6-methylthieno[2,3-b]pyridine-2-carboxamide]
  IC50: 0.05 to 0.2 µM

## COC[C@]1(C)CN(c2ccc3c(n2)CC[C@H](NC(=O)c2sc4nc(C)ccc4c2N)C3)C[C@@H]1N [Example 342, 3-amino-N-[(6S)-2-[(3R,4R)-4-amino-3-(methoxymethyl)-3-methylpyrrolidin-1-yl]-5,6,7,8-tetrahydroquinolin-6-yl]-6-methylthieno[2,3-b]pyridine-2-carboxamide]
  IC50: 0.05 to 0.2 µM

## COC[C@]1(C)CN(c2ccc3c(n2)CC[C@H](NC(=O)c2sc4nc(C)ccc4c2N)C3)C[C@H]1N [Example 344, 3-amino-N-[(6S)-2-[(3R,4S)-4-amino-3-(methoxymethyl)-3-methylpyrrolidin-1-yl]-5,6,7,8-tetrahydroquinolin-6-yl]-6-methylthieno[2,3-b]pyridine-2-carboxamide]
  IC50: 0.05 to 0.2 µM
